Measured values published in US12364681B2, “Combined MAPK and NAMPT inhibition for treatment of neuron degeneration” (The Johns Hopkins University, priority 2021, dated 2025).

Assays:
[1] = system: JNK, SCG10, NMNAT2 and α-Spectrin in murine DRG axons; assay: Western blot of distal axons after axotomy; assay type: cell-based
Description: (§1) The role of the DLK/LZK MAPK pathway in regulating NAD and SARM1 pathways of axonal degeneration was established. Its role in regulating levels of the NAD-synthesizing enzyme NMNAT2 after injury was explored by treating murine DRG axons with the DLK/LZK inhibitor GNE-3511 after axotomy.
Western blot analysis of distal axons was performed at 4 and 8 hours after transection and treatment with the DLK inhibitor GNE3511 or vehicle (DMSO).

[2] = system: axotomized murine DRG axons; assay: Axonal degeneration (degeneration index) of transected axons; assay type: cell-based
Description: as §1
To assess the therapeutic potential of post-axotomy MAPK inhibition, axons were treated with GNE-3511 at different time points before or after axotomy (2 h pre-treatment, immediately after axotomy, 0 h, or 2 and 4 hours post-injury).
Due to the different mechanism of action of MAPK and NAMPT inhibition, therapeutic synergy was further tested by treating axotomized axons with the MAPK inhibitor GNE at the time of injury and the NAMPT inhibitor FK866 at different time points (2, 4, 6 or 8 hours post injury).
Transected axons were treated with the NAMPT inhibitor FK866 after injury and NaR was added concurrently or at 3, 6, 9, or 24 hours post axotomy. Statistical analysis of degeneration index was performed by two-way ANOVA for the effect of time (F(4,32)=62.77, p<0.0001), treatment (F(5,8)=17.05, p=0.0004), and their interactions (F(20,32)=16.82, p<0.0001) with Holm-Šidák's multiple comparisons. […] See FIG. 15 (error bars indicate +/−1 SEM).
Transected axons were treated at the time of injury with the DLK inhibitor GNE-3511 or vehicle (DMSO) and with the combination of FK866/NaR either at the time of injury or with an 8-hour delay. […] Statistical analysis of degeneration index was performed by two-way ANOVA for the effect of time (F(2.143, 17.15)=49.43, p<0.0001), treatment (F(3,8)=9.58, p=0.005), and their interactions (F(18,48)=13.99, p<0.0001) with Holm-Šidák's multiple comparisons. […] See FIG. 16B (error bars indicate +/−1 SEM).

[3] = system: NAD+ pathway metabolites (NMN, NAD+, cADPR, Nam) in transected axons; assay: Metabolite analysis of distal axons 8 hours post axotomy; assay type: cell-based
Description: Axons were transected and treated with vehicle (DMSO), the NAMPT inhibitor FK866, or FK866+NaR. Axons were collected at 8 hours post axotomy for metabolite analysis. […] Statistically significant changes between treated and untreated transected axons were analyzed with one-way ANOVA and Holm-Šidák's multiple comparisons; *=p<0.05, **=p<0.01, ***=p<0.001, #=p<0.0001. Error bars indicate +/−1 SEM.
Relative changes in protein-normalized levels of metabolites in distal axons were measured at 8 hours following transection and treatment at the time of injury with the MAPK inhibitor GNE-3511, the NAMPT inhibitor FK866 in combination with NaR, or with the three compounds together.

[4] = system: retinal ganglion cells (RGCs); assay: Impact acceleration (IA) TBI model: RGC survival, SNCG staining of retinal whole-mounts; assay type: in vivo, mice; settings: intraperitoneal 60 mg/kg, treatment 21 days after IA; vehicle 1500 cells/mm2; p<0.05
From the text: Experimental subjects and IA procedures Eight-week-old male C57BL/6 J wild-type mice and transgenic Dlk^fl/fl and Dlk^fl/flLzk^fl/fl mice were subjected to IA or sham injury. Male mice were chosen such as to avoid the confounding effects of sex hormones on injury outcomes. Wild-type mice and founders were purchased from Charles River Laboratories (Wilmington, MA). Animals were housed in a vivarium with a 12-h light/12-h dark cycle and given ad libitum access to food and water. All animal handling as well as surgical and postoperative procedures were carried out according to protocols approved by the Animal Care and Use Committee of the Johns Hopkins Medical Institutions.
Impact acceleration injury was performed with height weight settings generating kinetic energy of 0.45-0.5 Jupon impact, essentially as described (FIG. 21). Immediately prior to injury, the cranium was exposed and a 5 mm-thick stainless-steel disc was glued onto the skull midway between bregma and lambda sutures. Surgical procedures and injury were performed under aseptic conditions with gas anesthesia (isoflurane:oxygen:nitrous oxide=1:33:66). Immediately after injury the disc was removed the skull was checked under the surgical microscope for skull fractures. The rare animals with skull fractures were excluded from further study because such events introduce injuries variables that cannot be easily controlled. […]

[5] = in vivo; cited from earlier work
[6] = treatment immediately after axotomy
[7] = GNE vs FK+NaR and vs FK+NaR+GNE

## N#Cc1ccnc(Nc2cc(C3CCN(C4COC4)CC3)cc(N3CCC(F)(F)C3)n2)c1 [GNE-3511]
[1]; 4 and 8 hours after transection
  injury associated degradation of SCG10: suppressed the injury associated degradation of SCG10
[1]; 4 hours after transection, vs vehicle (DMSO), n=3
  phosphorylation of JNK: suppressed phosphorylation of JNK
[1]; 8 hours after transection
  injury associated degradation of spectrin (p150 fragment to total spectrin): suppressed
[1]; significantly degraded in vehicle treated axons
  degradation of NMNAT2 between 4 and 8 hours post-axotomy: not in the presence of GNE
[1]; [6]
  calpain-mediated degradation of α-Spectrin: ameliorated the calpain-mediated degradation
  degradation of NMNAT2: reduced the degradation
  phosphorylation of SCG10: reduced phosphorylation
  phosphorylation of the downstream JNKs: reduced phosphorylation
[2]; applied before (2 h pre-treatment) or immediately following injury (0 h)
  protection from axonal degeneration: Significant protection
[2]; more delayed regimes (2 and 4 hours post-injury)
  protection from axonal degeneration: lesser protection
[3]
  cADPR/NAD+ ratio, difference vs FK+NaR: significant differences
[3]; [7]
  NAD+/NMN ratio, difference between treatment groups: significant differences
  Nam/NAD+ ratio, difference between treatment groups: significant differences
[3]; treatment at time of injury
  NAD+ levels compared to FK+NaR or the triple combination: greater protection of NAD+ levels

## NC(=O)c1ccc[n+]([C@@H]2O[C@H](CO)[C@@H](O)[C@H]2O)c1 [NaR, nicotinamide riboside]
[2]; NaR added 3, 6 or 9 hours post-axotomy in the presence of FK866, up to 4 days post-injury, p<0.0001
  axon protection (degeneration index) compared to FK866 alone: significantly protected axons
[2]; NaR added at 24 hours in the presence of FK866
  axon protection (degeneration index) compared to FK866 alone: no additive effect
[2]; in the presence of FK866 given after injury
  delay of NaR supplementation after axotomy with minimal and/or no loss of efficacy in suppressing axon fragmentation: up to 9 hours

## CCN(CC)CCNC(=O)c1c(C)[nH]c(/C=C2\C(=O)Nc3ccc(F)cc32)c1C [sunitinib]
[4]
  number of surviving RGCs: ~2300 cells/mm2
[5]
  CNS penetration: penetrates the CNS

## O=C(/C=C/c1cccnc1)NCCCCC1CCN(C(=O)c2ccccc2)CC1 [FK866]
[2]; in the absence of GNE-3511, added 2, 4, 6 or 8 hours post injury
  protection from axonal degeneration: provided protection especially when added at 2 hours
[2]; with GNE-3511 at the time of injury, FK-866 added 2, 4, 6 or 8 hours post injury
  protection from axonal degeneration: enhanced at 2, 4 and 6 hours post injury
[3]
  NAD+ degrading activity (cADPR/NAD+) relative to vehicle: suppressed the NAD+ degrading activity
  NAD+/NMN ratio compared to vehicle: increases
  NMN/Nam ratio compared to vehicle: reductions
  cADPR levels relative to vehicle: only the combined treatment suppressed cADPR levels
[3]; treatment at time of injury
  NAD+ levels compared to vehicle treated transected axons: protects NAD+ levels
  NMN levels compared to vehicle treated transected axons: suppressed NMN
